# What was measured:
# Plasmid DNA [1] = test: Non-specific plasmid DNA cleavage under oxidizing conditions; format: biochemical; conditions: for cleavage of DNA without metalloligand: no metalloligand
# Method: Plasmid DNA at a concentration of 50 μM, bp was added to a reaction solution containing 20 mM HEPES, pH 7.3, and the metalloligands of Examples 1-4 and the reducing agent ascorbic acid. […] The metalloligands of examples 1 to 4 also degraded plasmid DNA completely in the presence of 10 μM H2O2.
# However, superoxide dismutase (SOD) and NaN3 inhibited oxidative DNA cleavage mediated by Cu(kanamycin A). Accordingly, it is believed that activated oxygen species (such as O2^− or ^1O2) are involved in plasmid cleavage when the metalloligand and the substrate DNA are reacted under oxidizing conditions.
# R23 RNA [2] = conditions: cited from earlier work
# linear oligo (A12-18) = test: Cleavage of linear oligo (A12-18); conditions: similar reaction conditions as R23
# poly(C) = test: Cleavage of poly(C); conditions: similar reaction conditions as R23
# Plasmid DNA [3] = test: Non-specific plasmid DNA cleavage (hydrolytic conditions), gel electrophoresis; format: biochemical
# Method: The appearance of open circular DNA (form II) and the disappearance of supercoiled DNA (form I) was monitored via gel electrophoresis.
# Metalloligands comprising the transition metal ions Fe, Mn, Co, and Ni were formed by mixing a 10 μM solution of the salts FeSO4, MnCl2, CoSO4, and NiCi2, and an equivalent volume of 10 μM kanamycin A for 12 h at 35 ° C. Complex formation was monitored by thin layer chromatography, using PrOH:Me2CO:NH4OAc (20%(aq)) (1:1:5:0.025) on silica gel plates. […]
# R23 RNA [4] = test: Specific cleavage of 23-mer R23 RNA, FPLC analysis; format: biochemical
# Method: The metalloligand is added to a sample containing substrate RNA with the recognized binding motif. Preferably, the RNA is in an aqueous solution having a pH of from about 7 to about 8. Preferably, the reaction is conducted at a temperatures ranging from 4° C. to about 40° C.
# [5] = Stability of the metalloligands in aqueous solution; conditions: purified complex
# R23 RNA [6] = test: Cleaving R23 RNA at select sites under oxidizing conditions; format: biochemical
# Method: Uniformly labeled R23 RNA was incubated at 37° C. for 1 hr with various concentrations of Cu(kanamycin A) in the presence and absence of the co-reactants H2O2 and ascorbate. Cleavage products were separated on a denaturing polyacrylamide gel. […] These sites are depicted in FIG. 1. […] RNA cleavage of 30% was observed by FPLC with 1 nM Cu(kanamycin A) after incubation at 37° C. for 1 hour. Cleavage efficiencies of approximately 25% were obtained for solutions containing 50 pM Cu(kanamycin A) and 100 μM ascorbate or 1 μM H2O2 following incubation for 2 h at 37° C. Thus, Cu(kanamycin A) is able to selectively cleave RNA at physiological pH and under mild oxidizing conditions.
molecule,measurement,setting,value
"[Cu+2] [Cu^2+(aq), reference compound]",cleavage of DNA without metalloligand,Plasmid DNA [1]; Cu2+ and ascorbate,did not occur
same,cleavage of DNA without metalloligand,Plasmid DNA [1]; Cu2+(aq) alone,did not occur
NC[C@@H]1O[C@H](O[C@H]2[C@@H](O)[C@H](O[C@@H]3[C@@H](O)[C@H](N)C[C@H](N)[C@H]3O[C@H]3O[C@H](CN)[C@@H](O)[C@H](O)[C@H]3N)O[C@@H]2CO)[C@H](N)[C@@H](O)[C@@H]1O [neomycin B],binding affinity to R23 RNA,R23 RNA [2],high binding affinity
Cu(kanamycin A),cleavage of linear oligo (A12-18),linear oligo (A12-18),no cleavage
same,conversion of supercoiled DNA to linear form,"Plasmid DNA [1]; 5 nM complex, 10 μM ascorbate, supercoiled DNA 51 μM base pair",Complete conversion
same,effect of hydroxy radical quenchers on oxidative DNA cleavage,Plasmid DNA [1]; DMSO and EtOH,did not inhibit
same,effect of SOD and NaN3 on oxidative DNA cleavage,Plasmid DNA [1]; superoxide dismutase (SOD) and NaN3,inhibited
same,cleavage of poly(C),poly(C),no cleavage
same,nicking of plasmid DNA,"Plasmid DNA [3]; 500 nM complex, 5 minutes, plasmid DNA 50 μM bp, 20 mM HEPES pH 7.3",At least some DNA was nicked
same,time to complete degradation of plasmid DNA,"Plasmid DNA [3]; 1 μM complex, plasmid DNA 50 μM bp, 20 mM HEPES pH 7.3",≤ 1 h
same,effect of quenchers on DNA cleavage,"Plasmid DNA [3]; addition of SOD, NaN3, DMSO, EtOH",not inhibited
same,effect of excess metal-free aminoglycoside on DNA cleavage,Plasmid DNA [3]; addition of excess metal-free aminoglycoside,inhibited cleavage
same,DNA cleavage under anaerobic conditions,Plasmid DNA [3]; argon atmosphere,not inhibited
same,cleavage of structured 23 mer RNA,"R23 RNA [4]; 10 nmol complex, pH 7.3, 37 °C, 90 minutes",Good results
same,hydrolysis of R23 RNA,"R23 RNA [4]; 20 nM complex, 23-mer RNA 30 μM base pair, 90 minutes, 20 mM HEPES pH 7.3, FPLC",54%
same,hydrolysis efficiency of R23 RNA,R23 RNA [4]; 100 nM complex instead of 20 nM,Hydrolysis efficiency increased
same,stability in aqueous solution,[5],stable in aqueous solution for more than one day
same,cleavage efficiency,"R23 RNA [6]; 50 pM complex, 100 μM ascorbate or 1 μM H2O2, 2 h, 37 °C",approximately 25%
same,RNA cleavage,"R23 RNA [6]; 1 nM complex, 37 °C, 1 hour, FPLC",30%
same,sites of cleavage in R23 RNA,"R23 RNA [6]; 37 °C, 1 hr, presence and absence of H2O2 and ascorbate, denaturing polyacrylamide gel",one in the loop region at G^15 and the other in the stem region at C^4
same,degradation of target RNA,"R23 RNA [6]; nanomolar complex, 100 μM ascorbate or 1 μM H2O2",extremely efficient degradation
Cu(kanamycin A)2,concentration at which plasmid DNA was cleaved (as low as),Plasmid DNA [3],100 nM
Cu(neamine),time to appearance of open circular DNA (form II),"Plasmid DNA [3]; 0.1 μmolar complex, plasmid DNA 50 μM bp, 10 mM HEPES pH 7.3, 37 °C",within less than one hour
same,stability in aqueous solution,[5],stable in aqueous solution for more than one day
Cu(neomycin B),concentration at which plasmid DNA was cleaved (as low as),Plasmid DNA [3],100 nM

# From patent US6403777B1, “Metalloligands for cleaving nucleic acids” (The Ohio State University Research Foundation, priority 1999, dated 2002)
